This is an account of results in patent US5922723A, “Pharmaceutical compositions for prevention and treatment of central nervous system disorders” (priority 1996, dated 1999).

Counter-ions that a name gives are not always drawn.

As usually defined, the EC50 is the concentration at which the effect is half-maximal. A higher EC50 goes with weaker potency. The Ki is the dissociation constant of the complex between target and ligand, obtained from inhibition or displacement.

For assay [1], the system named is synaptosomes from the striatal area of rat brain (dopamine release). The assay is described as follows: Dopamine release from synaptosomes of the striatal area of rat brain. Type of assay: biochemical, rat (Sprague-Dawley). The conditions noted are these: for EC50: [3H]-dopamine; for dopamine release (in words): summary of Table I. Here is the method: Striata from 4 rats were homogenized in 2 ml of 0.32 M sucrose buffered with 5 mM HEPES (pH 7.5), using a glass-Teflon tissue grinder. The homogenate was diluted to 5 ml with additional homogenization solution and centrifuged at 1,000× g for 10 min. This procedure was repeated on the new pellet and the resulting supernatant was centrifuged at 12,000× g for 20 min. A 3 layer discontinuous Percoll gradient consisting of 16 percent, 10 percent and 7.5 percent Percoll in HEPES-buffered sucrose was made with the final pellet dispersed in the top layer. […] The new pellet was collected and re-suspended in perfusion buffer. The synaptosome suspension was incubated for 10 min. at 37° C. [^3 H]-Dopamine (Amersham, 40-60 Ci/mmol) was added to the suspension to give a final concentration of 0.1 uM, and the suspension was incubated for another 5 min. […] A continuous perfusion system was used to monitor release following exposure to each ligand. Synaptosomes were loaded onto glass fiber filters (Gelman type A/E). Perfusion buffer was dripped onto the filters (0.2-0.3 ml/min.) and pulled through the filters with a peristaltic pump. Synaptosomes were washed with perfusion buffer for a minimum of 20 min. before addition of the ligand. After the addition of 0.2 ml of a solution containing various concentrations of ligand, the perfusate was collected into scintillation vials at 1 min. intervals and the dopamine released was quantified by scintillation counting. Peaks of radioactivity released above background were summed and the average basal release during that time was subtracted from the total.

Assay [2] has as its target T1, ganglionic-type neuronal nicotinic receptors (rat pheochromocytoma clonal line PC12) (Rattus norvegicus, UniProt P04757+P12392).
T1 construct: tumor of the rat adrenal medulla expressing ganglionic-typeneuronal nicotinic receptors; endogenous in cells; host or cells: PC12 (rat pheochromocytoma clonal line), intact cells
It counts as cell-based. The conditions noted are these: for Ganglion Effect: pc12 cells; for effects at ganglionic sites (in words): summary of Table I.

In assay [3] the target is T2, muscle-like nicotinic receptors (human clonal line TE671/RD) (Homo sapiens, UniProt P02708+P07510+Q07001).
T2 construct: these cells express muscle-like nicotinic receptors; endogenous in cells; host or cells: TE671/RD (human embryonal rhabdomyosarcoma clonal line), intact cells
T2 sequence (P02708 21-457): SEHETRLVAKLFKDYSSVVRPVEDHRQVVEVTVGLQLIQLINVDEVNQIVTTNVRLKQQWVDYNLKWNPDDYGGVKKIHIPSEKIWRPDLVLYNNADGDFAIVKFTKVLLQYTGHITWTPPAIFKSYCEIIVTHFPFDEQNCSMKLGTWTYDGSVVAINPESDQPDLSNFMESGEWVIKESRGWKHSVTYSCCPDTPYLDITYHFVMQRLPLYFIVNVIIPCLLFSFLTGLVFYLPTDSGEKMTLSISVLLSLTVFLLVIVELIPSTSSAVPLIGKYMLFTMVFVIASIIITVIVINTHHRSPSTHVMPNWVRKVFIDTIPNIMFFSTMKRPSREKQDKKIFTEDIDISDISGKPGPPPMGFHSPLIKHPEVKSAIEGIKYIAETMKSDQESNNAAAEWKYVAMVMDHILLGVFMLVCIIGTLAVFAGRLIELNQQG
T2 sequence (Q07001 22-517): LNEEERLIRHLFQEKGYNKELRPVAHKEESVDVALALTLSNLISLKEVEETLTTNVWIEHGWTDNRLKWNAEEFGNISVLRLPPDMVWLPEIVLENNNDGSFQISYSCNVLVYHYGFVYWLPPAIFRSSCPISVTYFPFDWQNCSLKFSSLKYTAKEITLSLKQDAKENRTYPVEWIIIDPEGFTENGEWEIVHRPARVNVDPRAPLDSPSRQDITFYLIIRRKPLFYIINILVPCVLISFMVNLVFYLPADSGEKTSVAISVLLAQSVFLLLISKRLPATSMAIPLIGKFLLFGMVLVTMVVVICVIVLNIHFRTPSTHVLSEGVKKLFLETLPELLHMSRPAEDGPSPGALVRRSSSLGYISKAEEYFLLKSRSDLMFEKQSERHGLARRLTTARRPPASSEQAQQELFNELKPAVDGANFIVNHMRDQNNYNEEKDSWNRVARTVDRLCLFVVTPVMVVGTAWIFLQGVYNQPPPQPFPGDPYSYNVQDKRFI
T2 sequence (P07510 23-517): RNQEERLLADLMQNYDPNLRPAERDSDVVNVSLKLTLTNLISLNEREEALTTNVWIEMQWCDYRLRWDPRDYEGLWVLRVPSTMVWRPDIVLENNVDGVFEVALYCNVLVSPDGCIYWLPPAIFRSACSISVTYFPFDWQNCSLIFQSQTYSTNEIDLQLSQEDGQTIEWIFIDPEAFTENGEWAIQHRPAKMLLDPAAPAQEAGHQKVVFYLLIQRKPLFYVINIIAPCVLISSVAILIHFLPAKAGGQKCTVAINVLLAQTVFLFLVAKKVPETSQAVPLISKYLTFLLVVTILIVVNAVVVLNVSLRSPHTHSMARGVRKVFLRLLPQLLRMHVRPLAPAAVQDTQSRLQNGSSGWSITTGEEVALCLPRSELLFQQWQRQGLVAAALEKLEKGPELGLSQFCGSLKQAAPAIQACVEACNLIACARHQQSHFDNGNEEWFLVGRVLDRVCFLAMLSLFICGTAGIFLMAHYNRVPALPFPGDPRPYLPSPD
It counts as cell-based. Particulars: for effects at muscle sites (in words): summary of Table I; for Muscle Effect: te671/rd cells. Here is the method: Discussion concerning the heterogeneity of nicotinic receptors subtypes is set forth in Lukas et al., Internatl. […] Acetylcholine nicotinic receptors expressed in rat ganglia share a very high degree of homology with their human counterparts. See, Fornasari et al., Neurosci. […] Intact cells on dishes were used for functional studies.
Specific ion efflux was determined as the difference in isotope efflux between total and non-specific efflux samples.

The target of a further assay is CNS nicotinic receptors. The assay is described as follows: Inhibition of L-[3H]nicotine binding to rat brain membrane preparations. On the set-up: species or system rat (Sprague-Dawley). Particulars: for Ki: 10 nM L-[3H]nicotine, 2 hr at 4° C., rat brain membranes, calculated from IC50 (Cheng et al.); for binding to CNS nicotinic receptors (in words): summary of Table I. Here is the method:
Rats (Sprague-Dawley) were maintained on a 12 hour light/dark cycle and were allowed free access to water and food supplied by Wayne Lab Blox, Madison, Wis. Animals used in the present studies weighed 200 to 250 g. Brain membrane preparations were obtained from brain tissue of either males or females.
Rats were killed by decapitation following anesthesia with 70% CO2. Brains were removed and placed on an ice-cold platform. […] The resulting homogenate was centrifuged at 18,000× g for 20 min. and the resulting pellet was resuspended in 20 volumes of water. After 60 min. incubation at 4° C., a new pellet was collected by centrifugation at 18,000× g for 20 min. After resuspension in 10 volumes of buffer, a new final pellet was again collected by centrifugation at 18,000× g for 20 min. Prior to each centrifugation step, the suspension was incubated at 37° C. for 5 min. to promote hydrolysis of endogenous acetylcholine. The final pellet was overlayered with buffer and stored at -70° C. On the day of the assay, that pellet was thawed, resuspended in buffer and centrifuged at 18,000× g for 20 min. The pellet obtained was resuspended in buffer to a final concentration of approximately 5 mg protein/ml.
The binding of L-[^3 H]nicotine was measured using a 2 hr. incubation at 4° C. Incubations contained about 500 μg of protein and were conducted in 12 mm×75 mm polypropylene test tubes in a final incubation volume of 250 μl. The incubation buffer was Krebs-Ringers HEPES containing 200 mM TRIS buffer, pH 7.5. The binding reaction was terminated by filtration of the protein containing bound ligand onto glass fiber filters (Micro Filtration Systems) that had been soaked in buffer containing 0.5 percent polyethyleneimine. Filtration vacuum was -50 to -100 torr. Each filter was washed five times with 3 ml of ice-cold buffer. The filtration apparatus was cooled to 2° C. before use and was kept cold through the filtration process. Nonspecific binding was determined by inclusion of 10 uM nonradioactive nicotine in the incubations.
The inhibition of L-[^3 H]nicotine binding by test compounds was determined by including one of eight different concentrations of the test compound in the incubation.

Where [4] appears, read: rat striatal synaptosomes, % of release by equal concentration of (S)-(-)-nicotine.

T1 sequence (P04757 26-499): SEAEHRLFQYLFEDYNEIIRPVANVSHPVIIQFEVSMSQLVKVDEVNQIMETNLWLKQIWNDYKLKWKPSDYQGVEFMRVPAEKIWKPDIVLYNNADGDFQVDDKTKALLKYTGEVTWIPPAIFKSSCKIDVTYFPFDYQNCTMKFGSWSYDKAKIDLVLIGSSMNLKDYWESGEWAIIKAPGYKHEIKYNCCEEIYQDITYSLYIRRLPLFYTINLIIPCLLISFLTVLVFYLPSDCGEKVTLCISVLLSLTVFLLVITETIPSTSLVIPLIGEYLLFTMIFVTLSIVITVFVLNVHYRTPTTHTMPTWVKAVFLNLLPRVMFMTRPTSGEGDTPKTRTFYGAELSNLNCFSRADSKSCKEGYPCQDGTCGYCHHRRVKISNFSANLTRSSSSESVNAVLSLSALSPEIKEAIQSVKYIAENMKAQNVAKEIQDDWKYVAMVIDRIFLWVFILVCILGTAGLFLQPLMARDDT
T1 sequence (P12392 21-495): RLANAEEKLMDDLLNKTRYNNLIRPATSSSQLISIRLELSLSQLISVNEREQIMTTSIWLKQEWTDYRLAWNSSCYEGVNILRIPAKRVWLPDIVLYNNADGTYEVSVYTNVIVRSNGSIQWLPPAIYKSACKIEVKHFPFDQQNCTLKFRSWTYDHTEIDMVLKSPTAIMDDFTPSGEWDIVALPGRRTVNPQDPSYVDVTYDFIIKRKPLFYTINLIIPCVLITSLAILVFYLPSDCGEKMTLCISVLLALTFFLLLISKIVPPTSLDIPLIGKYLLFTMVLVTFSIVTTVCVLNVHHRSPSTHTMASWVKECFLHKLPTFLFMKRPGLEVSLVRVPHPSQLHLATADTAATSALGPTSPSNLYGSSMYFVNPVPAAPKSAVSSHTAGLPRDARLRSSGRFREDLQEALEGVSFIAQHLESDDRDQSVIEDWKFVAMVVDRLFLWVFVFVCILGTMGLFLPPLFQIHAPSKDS

The compound `CN1C2CCC(CC2)C1c1cccnc1` (racemic) [Sample No. 6, (+/-)-2-methyl-3-(3-pyridyl)-2-azabiyclo[2.2.2]octane fumarate] showed an EC50 in assay [1] (rat striatal synaptosomes) of 2000 nM. The “Dopamine Release Emax” value in assay [1] (setting [4]) is given as 10 % nicotine. In addition, in assay [2], the “Ganglion Effect” value is on record as 21; the “effects at ganglionic sites (in words)” value was “desirably low effects at muscle sites and ganglionic sites”. In addition, in assay [3], the “effects at muscle sites (in words)” value is “desirably low effects at muscle sites” and the “Muscle Effect” value is listed as 30. In addition, at CNS nicotinic receptors, the Ki is 58 nM and the “binding to CNS nicotinic receptors (in words)” value (“binding” for short) is listed as “good high affinity binding to CNS nicotinic receptors”.
In the case of `O=C(O)/C=C/C(=O)O.c1cncc(C2NC3CCC2CC3)c1` (racemic) [compound 5, (+/-)-3-(3-pyridyl)-2-azabicyclo[2.2.2]octane fumarate], in assay [1] (rat striatal synaptosomes), a half-maximal response (EC50) required 2550 nM. For the same compound, the “Dopamine Release Emax” value in assay [1] (setting [4]) worked out at 4 % nicotine. Besides, in assay [2], the “Ganglion Effect” value worked out at 3; the “effects at ganglionic sites (in words)” value was “desirably low effects at muscle sites and ganglionic sites”. In addition, in assay [3], the “effects at muscle sites (in words)” value is “desirably low effects at muscle sites” and the “Muscle Effect” value turned out to be 9. At CNS nicotinic receptors, the Ki is 35 nM and the “binding” value was “good high affinity binding to CNS nicotinic receptors”.
In assay [1] (rat striatal synaptosomes), `C1=C[C@H]2CC[C@@H]1[C@@H](c1cccnc1)N2` (relative stereo) [Sample No. 1, (+/-)-endo 3-(3-pyridyl)-2-azabicyclo[2.2.2]oct-5-ene fumarate] gave a 50% effective concentration (EC50) of 550 nM. Further, the “Dopamine Release Emax” value in assay [1] (setting [4]) is recorded as 14 % nicotine. In addition, the “Ganglion Effect” value in assay [2] is recorded as 12. Moreover, the “Muscle Effect” value in assay [3] was 69. Besides, the inhibition constant (Ki) on CNS nicotinic receptors is 476 nM.
In assay [1] (rat striatal synaptosomes), `C1=C[C@H]2CC[C@@H]1[C@H](c1cccnc1)N2` (relative stereo) [Sample No. 2, (+/-)-exo-3-(3-pyridyl)-2-azabicyclo[2.2.2]oct-5-ene fumarate] showed an EC50 of 300 nM. In assay [1] (setting [4]), the “Dopamine Release Emax” value amounted to 41 % nicotine. For the same compound, the “Ganglion Effect” value in assay [2] came out at 65. Further, in assay [3], the “Muscle Effect” value is listed as 103. Further, at CNS nicotinic receptors, the inhibition constant (Ki) was 2 nM and the “binding” value is listed as “good high affinity binding to CNS nicotinic receptors”.
Compound `CN1[C@H](c2cccnc2)[C@@H]2C=C[C@H]1CC2` (relative stereo) [Sample No. 3, (+/-)-endo-2-methyl-3-(3-pyridyl)-2-azabicyclo[2.2.2]oct-5-ene fumarate] registered an EC50 in assay [1] (rat striatal synaptosomes) of 13000 nM. Moreover, in assay [1] (setting [4]), the “Dopamine Release Emax” value came out at 9 % nicotine. For the same compound, the “Ganglion Effect” value in assay [2] was found to be 0. Moreover, the “Muscle Effect” value in assay [3] came out at 0. On CNS nicotinic receptors, the Ki is 6360 nM.
Turning to `CN1[C@H]2C=C[C@H](CC2)[C@@H]1c1cccnc1` (relative stereo) [Sample No. 4, (+/-)-Exo-2-methyl-3-(3-pyridyl)-2-azabicyclo[2.2.2]oct-5-ene fumarate], the concentration giving a half-maximal response (EC50) in assay [1] (rat striatal synaptosomes) was determined as 35000 nM. Further, the “Dopamine Release Emax” value in assay [1] (setting [4]) is 17 % nicotine. In addition, in assay [2], the “Ganglion Effect” value is given as 8; the “effects at ganglionic sites (in words)” value is “desirably low effects at muscle sites and ganglionic sites”. Further, in assay [3], the “effects at muscle sites (in words)” value is reported as “desirably low effects at muscle sites” and the “Muscle Effect” value is recorded as 8. For the same compound, on CNS nicotinic receptors, the Ki is 33 nM and the “binding” value was “good high affinity binding to CNS nicotinic receptors”.
In the case of `CCN1[C@H](c2cccnc2)[C@@H]2C=C[C@H]1C2` (relative stereo) [Sample No. 7, (+/-)-endo-2-ethyl-3-(3-pyridyl)-2-azabicyclo[2.2.1]hept-5-ene], the EC50 in assay [1] (rat striatal synaptosomes) was 12900 nM. Also, the “Dopamine Release Emax” value in assay [1] (setting [4]) stood at 22 % nicotine. The “Ganglion Effect” value in assay [2] is on record as 2. The “Muscle Effect” value in assay [3] came to 18. Further, on CNS nicotinic receptors, the Ki was 7820 nM.
Regarding `COc1ccc(CN2[C@H](c3cccnc3)[C@@H]3C=C[C@H]2C3)cc1` (relative stereo) [Sample No. 8, (+/-)-endo-2-(p-methoxybenzyl)-3-(3-pyridyl)-2-azabicyclo[2.2.1]hept-5-ene], in assay [1] (Emax at 100 uM, % of release by (S)-(-)-nicotine), the “Dopamine Release Emax” value turned out to be 15 % nicotine. In assay [1] (rat striatal synaptosomes), this compound returned an EC50 greater than 100000 nM. Also, the “dopamine release (in words)” value in assay [1] is recorded as “induce dopamine release”. For the same compound, the “effects at ganglionic sites (in words)” value in assay [2] is “desirably low effects at muscle sites and ganglionic sites”. The “effects at muscle sites (in words)” value in assay [3] is recorded as “desirably low effects at muscle sites”. The Ki on CNS nicotinic receptors was 80800 nM.
`CN1[C@H](c2cccnc2)[C@@H]2C=C[C@H]1C2` (relative stereo) [Sample No. 10, (+/-)-endo-2-methyl-3-(3-pyridyl)-2-azabicyclo[2.2.1]hept-5-ene] yielded an EC50 in assay [1] (rat striatal synaptosomes) of 86 nM. In addition, the “Dopamine Release Emax” value in assay [1] (setting [4]) is 44 % nicotine. In addition, in assay [2], the “Ganglion Effect” value came out at 18; the “effects at ganglionic sites (in words)” value is “desirably low effects at muscle sites and ganglionic sites”. Further, in assay [3], the “effects at muscle sites (in words)” value is “desirably low effects at muscle sites” and the “Muscle Effect” value is reported as 25. In addition, on CNS nicotinic receptors, the Ki was 3 nM and the “binding” value was “good high affinity binding to CNS nicotinic receptors”.
In the case of `CN1[C@H](c2cncc(Br)c2)[C@@H]2C=C[C@H]1C2` (relative stereo) [Sample No. 12, (+/-)-endo-2-methyl-3-[3-(5-bromopyridyl)]-2-azabicyclo[2.2.1]hept-5-ene], the EC50 in assay [1] (rat striatal synaptosomes) was 1650 nM. In assay [1] (setting [4]), the “Dopamine Release Emax” value was determined as 12 % nicotine. Moreover, in assay [2], the “Ganglion Effect” value was 4. Besides, the “Muscle Effect” value in assay [3] is recorded as 2. Also, the Ki on CNS nicotinic receptors is 2100 nM.
In assay [1] (rat striatal synaptosomes), `C1=C[C@H]2C[C@@H]1[C@@H](c1cccnc1)N2Cc1ccccc1` (relative stereo) [compound 9, (+/-)-endo-2-benzyl-3-(3-pyridyl)-2-azabicyclo[2.2.1]hept-5-ene] came in with a half-maximal effective concentration (EC50) of 11000 nM. Also, the “Dopamine Release Emax” value in assay [1] (setting [4]) is 30 % nicotine. In assay [1], the “dopamine release (in words)” value is recorded as “induce dopamine release”. For the same compound, in assay [2], the “Ganglion Effect” value was 11; the “effects at ganglionic sites (in words)” value is “desirably low effects at muscle sites and ganglionic sites”. Moreover, in assay [3], the “effects at muscle sites (in words)” value is “desirably low effects at muscle sites” and the “Muscle Effect” value was 7. For the same compound, the Ki at CNS nicotinic receptors was 141000 nM.
Take `CN1[C@H]2C=C[C@H](C2)[C@@H]1c1cccnc1` (relative stereo) [compound 11, (+/-)-exo-2-methyl-3-(3-pyridyl)-2-azabicyclo[2.2.1]hept-5-ene]: the concentration for a half-maximal effect (EC50) in assay [1] (rat striatal synaptosomes) was 90 nM. In addition, the “Dopamine Release Emax” value in assay [1] (setting [4]) was found to be 58 % nicotine. Also, the “Ganglion Effect” value in assay [2] is listed as 55. Besides, the “Muscle Effect” value in assay [3] stood at 7. Further, at CNS nicotinic receptors, the Ki was 9 nM and the “binding” value is on record as “good high affinity binding to CNS nicotinic receptors”.
Take `CN1CCC[C@H]1c1cccnc1` [Sample No. C-1, (S)-(-)-nicotine, reference compound]: the “Dopamine Release Emax” value in assay [1] (setting [4]) is listed as 100 % nicotine.
